Experiments:
Settings in all cases: binder
PAK1 = PAK1 (Homo sapiens, UniProt Q13153)
MST1 = target: T1, MST1 (Homo sapiens, UniProt Q13043)
T1 sequence (Q13043 1-487): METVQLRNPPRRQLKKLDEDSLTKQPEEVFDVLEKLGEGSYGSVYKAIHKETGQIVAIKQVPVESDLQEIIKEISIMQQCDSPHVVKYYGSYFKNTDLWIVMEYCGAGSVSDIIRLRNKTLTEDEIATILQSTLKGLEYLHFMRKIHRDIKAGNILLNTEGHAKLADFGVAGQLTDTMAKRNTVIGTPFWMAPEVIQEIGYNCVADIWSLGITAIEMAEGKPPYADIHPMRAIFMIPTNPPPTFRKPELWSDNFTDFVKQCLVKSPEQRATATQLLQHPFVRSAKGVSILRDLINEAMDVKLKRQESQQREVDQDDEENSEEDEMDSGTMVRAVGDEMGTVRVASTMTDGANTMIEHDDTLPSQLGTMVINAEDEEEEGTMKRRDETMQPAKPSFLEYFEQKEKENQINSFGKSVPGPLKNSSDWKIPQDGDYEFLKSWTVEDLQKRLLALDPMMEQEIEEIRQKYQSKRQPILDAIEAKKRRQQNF

FES = FES (Homo sapiens, UniProt P07332)
FGFR1 = FGFR1 (Homo sapiens, UniProt P11362)
TAF1 = TAF1 (Homo sapiens, UniProt P21675)
EphA5 = EphA5 (Homo sapiens, UniProt P54756)
TLK1 = target: T2, TLK1 (Homo sapiens, UniProt Q9UKI8)
T2 sequence (Q9UKI8 1-766): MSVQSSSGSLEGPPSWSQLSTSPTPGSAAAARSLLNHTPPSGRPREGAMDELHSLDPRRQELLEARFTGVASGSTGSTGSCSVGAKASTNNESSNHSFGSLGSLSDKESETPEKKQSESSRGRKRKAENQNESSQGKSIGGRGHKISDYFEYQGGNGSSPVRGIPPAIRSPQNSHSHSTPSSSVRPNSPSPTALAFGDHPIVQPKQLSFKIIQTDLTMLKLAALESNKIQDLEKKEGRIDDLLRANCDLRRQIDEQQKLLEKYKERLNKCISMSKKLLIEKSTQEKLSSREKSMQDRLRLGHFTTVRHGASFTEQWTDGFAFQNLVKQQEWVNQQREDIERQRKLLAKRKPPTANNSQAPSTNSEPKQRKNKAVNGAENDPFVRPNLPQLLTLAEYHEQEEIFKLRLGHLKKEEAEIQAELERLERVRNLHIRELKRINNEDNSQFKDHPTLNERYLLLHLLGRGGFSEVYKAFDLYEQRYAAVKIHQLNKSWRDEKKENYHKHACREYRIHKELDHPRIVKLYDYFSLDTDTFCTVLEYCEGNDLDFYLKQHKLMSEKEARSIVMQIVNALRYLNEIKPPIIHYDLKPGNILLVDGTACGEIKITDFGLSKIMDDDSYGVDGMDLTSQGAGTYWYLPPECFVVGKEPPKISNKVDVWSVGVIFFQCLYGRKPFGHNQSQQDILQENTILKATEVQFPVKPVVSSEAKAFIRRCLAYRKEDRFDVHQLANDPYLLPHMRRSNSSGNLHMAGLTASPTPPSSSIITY

PCTAIRE1 = PCTAIRE1 (Homo sapiens, UniProt Q00536)
MST4 = MST4 (Homo sapiens, UniProt Q9P289)
MST3 = MST3 (Homo sapiens, UniProt Q9Y6E0)
Sequence of MST3 (Q9Y6E0 whole entry): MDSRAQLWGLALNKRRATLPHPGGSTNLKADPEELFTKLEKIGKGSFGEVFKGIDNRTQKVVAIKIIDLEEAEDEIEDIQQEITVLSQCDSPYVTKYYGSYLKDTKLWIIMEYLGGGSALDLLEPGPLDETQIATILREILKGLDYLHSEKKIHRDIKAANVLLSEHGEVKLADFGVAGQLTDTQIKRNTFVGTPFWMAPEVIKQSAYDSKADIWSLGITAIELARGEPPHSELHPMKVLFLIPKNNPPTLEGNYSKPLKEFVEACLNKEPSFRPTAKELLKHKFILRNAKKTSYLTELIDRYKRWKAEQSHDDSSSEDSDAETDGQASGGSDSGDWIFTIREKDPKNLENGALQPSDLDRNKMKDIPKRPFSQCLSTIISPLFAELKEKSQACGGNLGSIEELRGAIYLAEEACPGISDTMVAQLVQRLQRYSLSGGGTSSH

Sequence of EphA5 (P54756 whole entry): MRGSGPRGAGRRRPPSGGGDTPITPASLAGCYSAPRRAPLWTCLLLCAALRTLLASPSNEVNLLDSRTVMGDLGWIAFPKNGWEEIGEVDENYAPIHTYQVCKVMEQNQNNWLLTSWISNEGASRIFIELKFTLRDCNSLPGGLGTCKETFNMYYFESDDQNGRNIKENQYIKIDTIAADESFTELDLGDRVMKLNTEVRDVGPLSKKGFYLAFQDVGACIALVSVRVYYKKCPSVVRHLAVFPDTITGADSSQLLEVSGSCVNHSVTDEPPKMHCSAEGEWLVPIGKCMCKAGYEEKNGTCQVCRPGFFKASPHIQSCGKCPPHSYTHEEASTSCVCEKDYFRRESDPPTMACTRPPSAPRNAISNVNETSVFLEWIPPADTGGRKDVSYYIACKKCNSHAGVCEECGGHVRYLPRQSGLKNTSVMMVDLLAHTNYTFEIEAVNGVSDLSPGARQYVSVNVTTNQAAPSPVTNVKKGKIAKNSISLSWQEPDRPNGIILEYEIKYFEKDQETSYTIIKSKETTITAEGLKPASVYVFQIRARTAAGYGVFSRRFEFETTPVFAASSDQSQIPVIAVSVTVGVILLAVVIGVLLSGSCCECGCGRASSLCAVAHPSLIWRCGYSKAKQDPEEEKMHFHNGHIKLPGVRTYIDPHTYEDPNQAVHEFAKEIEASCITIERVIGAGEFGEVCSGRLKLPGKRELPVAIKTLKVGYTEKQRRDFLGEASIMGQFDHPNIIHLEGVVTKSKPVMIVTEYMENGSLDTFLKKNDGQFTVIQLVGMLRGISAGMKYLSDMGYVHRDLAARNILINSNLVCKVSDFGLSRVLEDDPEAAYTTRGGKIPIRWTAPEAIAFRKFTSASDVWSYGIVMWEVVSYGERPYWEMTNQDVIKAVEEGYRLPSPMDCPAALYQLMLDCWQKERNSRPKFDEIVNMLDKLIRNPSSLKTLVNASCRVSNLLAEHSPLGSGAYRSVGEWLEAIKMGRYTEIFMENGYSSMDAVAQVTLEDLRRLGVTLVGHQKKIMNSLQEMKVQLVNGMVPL
Sequence of FES (P07332 whole entry): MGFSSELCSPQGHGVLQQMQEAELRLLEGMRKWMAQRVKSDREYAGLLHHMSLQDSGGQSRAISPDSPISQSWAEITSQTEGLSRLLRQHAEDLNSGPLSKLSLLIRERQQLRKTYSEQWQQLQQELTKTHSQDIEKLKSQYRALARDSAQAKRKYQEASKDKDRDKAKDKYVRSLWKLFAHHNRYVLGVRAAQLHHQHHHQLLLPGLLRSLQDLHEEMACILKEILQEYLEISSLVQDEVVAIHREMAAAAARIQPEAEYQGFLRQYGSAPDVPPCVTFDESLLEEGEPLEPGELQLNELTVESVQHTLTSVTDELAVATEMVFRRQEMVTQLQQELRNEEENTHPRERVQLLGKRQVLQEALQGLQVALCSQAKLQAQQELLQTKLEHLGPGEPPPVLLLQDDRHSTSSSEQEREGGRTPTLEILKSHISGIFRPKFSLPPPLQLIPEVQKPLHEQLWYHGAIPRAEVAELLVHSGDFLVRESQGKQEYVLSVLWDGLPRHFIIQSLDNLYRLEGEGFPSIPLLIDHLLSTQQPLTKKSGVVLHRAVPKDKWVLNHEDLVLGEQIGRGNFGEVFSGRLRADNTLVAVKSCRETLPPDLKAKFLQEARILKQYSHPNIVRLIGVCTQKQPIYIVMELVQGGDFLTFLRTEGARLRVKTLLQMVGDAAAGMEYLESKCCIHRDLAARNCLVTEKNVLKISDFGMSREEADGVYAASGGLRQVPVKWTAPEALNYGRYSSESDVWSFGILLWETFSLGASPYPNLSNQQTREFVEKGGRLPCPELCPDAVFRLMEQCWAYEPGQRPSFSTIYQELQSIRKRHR
Sequence of TAF1 (P21675 whole entry): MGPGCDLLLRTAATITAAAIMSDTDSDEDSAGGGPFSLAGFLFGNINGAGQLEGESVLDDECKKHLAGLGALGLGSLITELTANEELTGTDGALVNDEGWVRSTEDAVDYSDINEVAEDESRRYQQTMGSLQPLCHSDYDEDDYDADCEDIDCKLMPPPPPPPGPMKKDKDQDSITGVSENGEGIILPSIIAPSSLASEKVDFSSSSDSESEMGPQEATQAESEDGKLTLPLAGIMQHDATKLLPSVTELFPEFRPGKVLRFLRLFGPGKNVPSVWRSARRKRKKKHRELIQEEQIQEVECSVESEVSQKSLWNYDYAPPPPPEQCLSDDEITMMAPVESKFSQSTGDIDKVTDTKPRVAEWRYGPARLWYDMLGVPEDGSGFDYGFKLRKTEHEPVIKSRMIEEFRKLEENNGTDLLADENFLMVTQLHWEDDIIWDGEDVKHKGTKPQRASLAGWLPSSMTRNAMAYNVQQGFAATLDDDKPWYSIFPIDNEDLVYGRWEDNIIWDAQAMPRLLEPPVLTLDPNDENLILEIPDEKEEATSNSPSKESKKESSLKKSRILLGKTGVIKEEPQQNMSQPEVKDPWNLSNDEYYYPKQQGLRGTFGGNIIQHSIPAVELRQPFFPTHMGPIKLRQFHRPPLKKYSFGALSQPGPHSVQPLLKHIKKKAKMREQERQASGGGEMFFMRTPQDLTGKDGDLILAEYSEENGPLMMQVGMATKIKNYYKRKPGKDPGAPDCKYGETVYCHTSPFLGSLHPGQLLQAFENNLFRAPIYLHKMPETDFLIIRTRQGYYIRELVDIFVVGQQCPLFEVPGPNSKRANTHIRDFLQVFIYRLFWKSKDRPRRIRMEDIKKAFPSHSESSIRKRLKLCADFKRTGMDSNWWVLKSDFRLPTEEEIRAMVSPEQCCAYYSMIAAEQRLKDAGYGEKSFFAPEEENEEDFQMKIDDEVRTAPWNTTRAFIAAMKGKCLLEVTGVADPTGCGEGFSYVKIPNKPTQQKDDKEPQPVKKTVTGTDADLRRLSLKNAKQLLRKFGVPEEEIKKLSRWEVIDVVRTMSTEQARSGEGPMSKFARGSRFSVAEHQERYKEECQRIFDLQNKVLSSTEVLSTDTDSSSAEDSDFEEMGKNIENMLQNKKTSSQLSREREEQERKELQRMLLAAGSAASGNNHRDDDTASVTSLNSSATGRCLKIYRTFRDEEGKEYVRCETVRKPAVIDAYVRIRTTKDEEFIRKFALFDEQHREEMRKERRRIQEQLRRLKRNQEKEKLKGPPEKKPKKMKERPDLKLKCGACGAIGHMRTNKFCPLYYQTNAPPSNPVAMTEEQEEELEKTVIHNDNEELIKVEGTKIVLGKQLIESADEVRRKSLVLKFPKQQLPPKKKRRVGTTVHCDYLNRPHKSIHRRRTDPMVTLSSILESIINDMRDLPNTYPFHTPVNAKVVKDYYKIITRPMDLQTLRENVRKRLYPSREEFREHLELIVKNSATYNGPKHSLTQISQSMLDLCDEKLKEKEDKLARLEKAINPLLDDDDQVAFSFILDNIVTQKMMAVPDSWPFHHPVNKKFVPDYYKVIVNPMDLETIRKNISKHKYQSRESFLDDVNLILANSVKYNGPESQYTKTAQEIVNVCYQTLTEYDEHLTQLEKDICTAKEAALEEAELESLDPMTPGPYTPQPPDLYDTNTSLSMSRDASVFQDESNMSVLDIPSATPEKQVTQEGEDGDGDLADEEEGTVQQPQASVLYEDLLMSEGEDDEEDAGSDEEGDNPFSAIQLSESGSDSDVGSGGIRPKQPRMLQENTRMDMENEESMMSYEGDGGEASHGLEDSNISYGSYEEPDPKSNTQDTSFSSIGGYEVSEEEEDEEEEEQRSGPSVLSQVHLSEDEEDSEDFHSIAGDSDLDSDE
Sequence of PAK1 (Q13153 whole entry): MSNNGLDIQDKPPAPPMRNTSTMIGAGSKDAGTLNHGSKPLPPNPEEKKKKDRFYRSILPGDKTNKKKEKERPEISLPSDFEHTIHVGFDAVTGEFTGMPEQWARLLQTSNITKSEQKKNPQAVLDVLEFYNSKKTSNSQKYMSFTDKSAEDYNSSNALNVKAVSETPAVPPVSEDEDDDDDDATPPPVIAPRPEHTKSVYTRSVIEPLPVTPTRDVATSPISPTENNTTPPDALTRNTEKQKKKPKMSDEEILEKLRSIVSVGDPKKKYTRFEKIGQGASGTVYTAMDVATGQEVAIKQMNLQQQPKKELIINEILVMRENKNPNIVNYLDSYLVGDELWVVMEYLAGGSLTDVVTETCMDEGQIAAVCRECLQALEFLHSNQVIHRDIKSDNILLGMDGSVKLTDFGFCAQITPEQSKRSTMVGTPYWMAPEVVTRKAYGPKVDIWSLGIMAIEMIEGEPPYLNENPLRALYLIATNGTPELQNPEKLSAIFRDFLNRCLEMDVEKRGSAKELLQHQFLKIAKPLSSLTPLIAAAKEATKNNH

- dTm PAK1 (PAK1): 9.1 °C
- dTm MST1 (MST1): 8.1 °C
- ΔTm 32 (FES): 8.8 °C
- ΔTm 32 (FGFR1): 2.0 °C
- ΔTm 32 (TAF1): 0.5 °C
- ΔTm 32 (EphA5): 6.6 °C
- ΔTm 32 (TLK1): -0.8 °C
- ΔTm 32 (PCTAIRE1): 4.8 °C
- dTm MST4 (MST4): 15.9 °C
- dTm MST3 (MST3): 17.5 °C
SMILES: Cc1cccc(-c2ccc(-c3cc4cnc(Nc5ccc(C)c(O)c5)nc4n(CCCCN)c3=O)c(Cl)c2)n1 [compound 32, 8-(4-Aminobutyl)-6-(2-chloro-4-(6-methylpyridin-2-yl)phenyl)-2-((3-hydroxy-4-methylphenyl)amino)pyrido[2,3-d]pyrimidin-7(8H)-one]
